Results reported in the supplement of paper PMC10307832.

Experiments:
Test in all cases: relative viability (nuclei count vs DMSO), 5 days (fraction); higher = more cells survive
[1] = test system: SW 1573
Outline: (§1)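 For relative viability, nuclei counts in treated wells were divided by those in vehicle wells. Lung cancer cell lines had been pin-tool dosed in 1536-well plates the day after seeding and cultured for 5 days, then fixed and stained in one step (final 0.05% Triton X-100, 1% formaldehyde, 1 ug/ml Hoechst) and imaged at 4×. Doses were one drug alone or a fixed anchor-drug dose plus five library-drug doses (not always all listed) in √10 steps, and values are duplicate-plate medians.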

[2] = test system: NCI-H2126
Outline: as §1

[3] = test system: NCI-H647
Outline: as §1

[4] = test system: NCI-H2085
Outline: as §1

[5] = test system: NCI-H1734
Outline: as §1

[6] = test system: EMC-BAC-2
Outline: as §1

[7] = test system: PC-14
Outline: as §1

[8] = test system: NCI-H2023
Outline: as §1

[9] = test system: LXF-289
Outline: as §1

[10] = test system: NCI-H1915
Outline: as §1

[11] = test system: NCI-H1563
Outline: as §1

[12] = test system: SK-LU-1
Outline: as §1

[13] = test system: NCI-H661
Outline: as §1

[14] = test system: H3255
Outline: as §1

[15] = test system: NCI-H1993
Outline: as §1

[16] = test system: EPLC-272H
Outline: as §1

[17] = test system: NCI-H2347
Outline: as §1

[18] = test system: HOP-62
Outline: as §1

[19] = test system: NCI-H727
Outline: as §1

[20] = test system: NCI-H322M
Outline: as §1

[21] = test system: LCLC-97TM1
Outline: as §1

[22] = test system: NCI-H2009
Outline: as §1

In the case of `O=c1cc(-c2cccc3c2Sc2ccccc2S3)oc(N2CCOCC2)c1` + CS(=O)(=O)N1CCN(Cc2cc3nc(-c4cccc5[nH]ncc45)nc(N4CCOCC4)c3s2)CC1 [Pictilisib] (partner 1 µM), the relative viability ([1]; first compound 0.08 µM) is reported as 0.539, the relative viability ([1]; first compound 0.253 µM) is reported as 0.554 and the relative viability ([1]; first compound 0.8 µM) is reported as 0.586. For the same compound, the relative viability ([1]; first compound 2.53 µM) was 0.556, the relative viability ([1]; first compound 8 µM) was 0.597 and the relative viability ([2]; first compound 0.08 µM) was 0.454. For the same compound, the relative viability ([2]; first compound 0.253 µM) was 0.509, the relative viability ([2]; first compound 0.8 µM) was 0.412 and the relative viability ([2]; first compound 2.53 µM) was 0.452. It also gave a relative viability ([2]; first compound 8 µM) of 0.56, a relative viability ([3]; first compound 0.08 µM) of 0.341 and a relative viability ([3]; first compound 0.253 µM) of 0.499. The relative viability ([3]; first compound 0.8 µM) was 0.365, the relative viability ([3]; first compound 8 µM) was 0.603 and the relative viability ([4]; first compound 0.08 µM) was 0.44. The relative viability ([4]; first compound 0.253 µM) was 0.586, the relative viability ([4]; first compound 0.8 µM) was 0.476 and the relative viability ([4]; first compound 2.53 µM) was 0.464. The relative viability ([4]; first compound 8 µM) was 0.494, the relative viability ([5]; first compound 0.08 µM) was 0.443 and the relative viability ([5]; first compound 0.253 µM) was 0.564. For the same compound, the relative viability ([5]; first compound 0.8 µM) was 0.465, the relative viability ([5]; first compound 2.53 µM) was 0.351 and the relative viability ([5]; first compound 8 µM) was 0.578. For the same compound, the relative viability ([6]; first compound 0.08 µM) was 0.535, the relative viability ([6]; first compound 0.253 µM) was 0.582 and the relative viability ([6]; first compound 0.8 µM) was 0.58. It also gave a relative viability ([6]; first compound 2.53 µM) of 0.548, a relative viability ([6]; first compound 8 µM) of 0.538 and a relative viability ([7]; first compound 0.08 µM) of 0.48. For the same compound, the relative viability ([7]; first compound 0.253 µM) was 0.977, the relative viability ([7]; first compound 0.8 µM) was 0.755 and the relative viability ([7]; first compound 2.53 µM) was 0.748. For the same compound, the relative viability ([7]; first compound 8 µM) was 0.668, the relative viability ([8]; first compound 0.08 µM) was 0.213 and the relative viability ([8]; first compound 0.253 µM) was 0.294. For the same compound, the relative viability ([8]; first compound 0.8 µM) was 0.244, the relative viability ([8]; first compound 2.53 µM) was 0.218 and the relative viability ([8]; first compound 8 µM) was 0.218. For the same compound, the relative viability ([9]; first compound 0.08 µM) was 0.777, the relative viability ([9]; first compound 0.253 µM) was 0.791 and the relative viability ([9]; first compound 0.8 µM) was 0.896. For the same compound, the relative viability ([9]; first compound 2.53 µM) was 0.747, the relative viability ([9]; first compound 8 µM) was 0.849 and the relative viability ([10]; first compound 0.08 µM) was 0.821. It also gave a relative viability ([10]; first compound 0.253 µM) of 1.01, a relative viability ([10]; first compound 0.8 µM) of 0.904 and a relative viability ([10]; first compound 2.53 µM) of 0.828. For the same compound, the relative viability ([10]; first compound 8 µM) was 0.976, the relative viability ([11]; first compound 0.08 µM) was 0.649 and the relative viability ([11]; first compound 0.253 µM) was 0.64. The relative viability ([11]; first compound 0.8 µM) was 0.633, the relative viability ([11]; first compound 2.53 µM) was 0.738 and the relative viability ([11]; first compound 8 µM) was 0.661. For the same compound, the relative viability ([12]; first compound 0.08 µM) was 0.616, the relative viability ([12]; first compound 0.253 µM) was 0.515 and the relative viability ([12]; first compound 0.8 µM) was 0.594. It also gave a relative viability ([12]; first compound 2.53 µM) of 0.541, a relative viability ([12]; first compound 8 µM) of 0.596 and a relative viability ([13]; first compound 0.08 µM) of 0.352. It also gave a relative viability ([13]; first compound 0.253 µM) of 0.394, a relative viability ([13]; first compound 0.8 µM) of 0.404 and a relative viability ([13]; first compound 2.53 µM) of 0.35. The relative viability ([13]; first compound 8 µM) was 0.446, the relative viability ([14]; first compound 0.08 µM) was 0.408 and the relative viability ([14]; first compound 0.253 µM) was 0.463. It also gave a relative viability ([14]; first compound 0.8 µM) of 0.427, a relative viability ([14]; first compound 2.53 µM) of 0.402 and a relative viability ([14]; first compound 8 µM) of 0.513. The relative viability ([15]; first compound 0.08 µM) was 0.942, the relative viability ([15]; first compound 0.253 µM) was 0.759 and the relative viability ([15]; first compound 0.8 µM) was 0.894. The relative viability ([15]; first compound 2.53 µM) was 0.846, the relative viability ([15]; first compound 8 µM) was 0.805 and the relative viability ([16]; first compound 0.08 µM) was 0.321. For the same compound, the relative viability ([16]; first compound 0.253 µM) was 0.334, the relative viability ([16]; first compound 0.8 µM) was 0.29 and the relative viability ([16]; first compound 2.53 µM) was 0.289. For the same compound, the relative viability ([16]; first compound 8 µM) was 0.327, the relative viability ([17]; first compound 0.08 µM) was 0.633 and the relative viability ([17]; first compound 0.253 µM) was 0.952. For the same compound, the relative viability ([17]; first compound 0.8 µM) was 0.567, the relative viability ([17]; first compound 2.53 µM) was 0.733 and the relative viability ([17]; first compound 8 µM) was 0.476. The relative viability ([18]; first compound 0.08 µM) was 0.782, the relative viability ([18]; first compound 0.253 µM) was 1.02 and the relative viability ([18]; first compound 0.8 µM) was 0.89. It also gave a relative viability ([18]; first compound 2.53 µM) of 0.831, a relative viability ([18]; first compound 8 µM) of 0.779 and a relative viability ([19]; first compound 0.253 µM) of 0.442. The relative viability ([19]; first compound 2.53 µM) was 0.285, the relative viability ([19]; first compound 8 µM) was 0.528 and the relative viability ([20]; first compound 0.08 µM) was 0.512. For the same compound, the relative viability ([20]; first compound 0.253 µM) was 0.553, the relative viability ([20]; first compound 0.8 µM) was 0.419 and the relative viability ([20]; first compound 2.53 µM) was 0.585. It also gave a relative viability ([20]; first compound 8 µM) of 0.471, a relative viability ([21]; first compound 0.08 µM) of 0.166 and a relative viability ([21]; first compound 0.253 µM) of 0.174. The relative viability ([21]; first compound 0.8 µM) was 0.208, the relative viability ([21]; first compound 2.53 µM) was 0.158 and the relative viability ([21]; first compound 8 µM) was 0.184. The relative viability ([22]; first compound 0.08 µM) was 0.813, the relative viability ([22]; first compound 0.253 µM) was 0.962 and the relative viability ([22]; first compound 0.8 µM) was 0.968. It also gave a relative viability ([22]; first compound 2.53 µM) of 0.728 and a relative viability ([22]; first compound 8 µM) of 0.745.
